What was measured:
[1] = tested on: metastatic colorectal carcinoma (CRC); experiment: NO16966 first-line metastatic colorectal cancer trial, PFS and OS, stratified by 22-gene VDV signature; assay type: in vivo, human
Method: Sections from archival tumor samples from patients enrolled in the XELOX treatment arms of NO 16966 were evaluated by a pathologist and high tumor content area macro-dissected for subsequent RNA isolation using the FFPE RNA isolation kit (Roche; 7-10 sections per patient). RNA levels were assessed after cDNA synthesis following standard techniques, with the qPCR protocol on the Fluidigm Biomark platform according to the manufacturer's protocol.
Quantitative histological data from various animal experiments were plotted using Microsoft Excel software. Student's t test was applied to compare data sets of interest and differences with p values <0.05 were considered significant. 103 biopsies out of 1017 patients from the XELOX (capecitabine and oxaliplatin)-containing arm in the NO16966 trial were analyzed for the gene expression of VDV genes. qRT-PCR values were normalized by the housekeeping genes and relative to a universal reference sample to derive delta-delta Ct values. Subsequently, the delta-delta Ct value of each of the 22 VDV genes was mean centered and variance scaled to a Z-score.
For each sample i for which all of the VDV genes were analyzed, a VDV signature score (VDVi) was calculated. The VDVi represents a weighted average of z-scores across the analyzed VDV genes and is given by the algorithm:
[formula] wherein Zg,i is the standardized z-score of the qRT-PCR value for gene g of sample i and n, in this instance, is 22. The VDVi value provides quantitative information regarding the extent to which the expression of a particular set of genes is collectively overexpressed or underexpressed relative to a centered mean.
To compare the clinical outcomes (PFS and OS) between marker and/or treatment subgroups, log-rank tests and Cox regression were used, with median time calculated by the Kaplan-Meier analysis. All statistical tests were two-sided.
To test if VDV gene expression could correlate with clinical outcomes, we analyzed VDV gene expression levels in available pre-treatment archival tumor tissue from 103 patients (biomarker evaluable subpopulation) that were enrolled in the XELOX-containing arms. Due to the limited quality and amount of RNA from these clinical samples, gene expression was analyzed in a previously designed and validated “angiogenesis” Fluidigm qRT-PCR chip (FIG. 8B) that included 4 different housekeeping genes (for gene expression normalization), VEGF (as a control), and 22 representative proximal and distal VDV genes comprising: (i) pan-vascular markers such as CD31, CD34, and VE-CADH as indicators of MVD; (ii) key VEGF pathway components and proxVDV genes, including VEGFR-1, VEGFR-2, VEGFR-3, EPHRINB2, NRPs, ESM1, NID2, COL4a2, and LAMA4a; and (iii) additional VDV genes that are components of endothelial signaling pathways and potential modulators of VDV biology, including DLL-4, NOTCH1, ALK1, and EGFL7 (see FIG. 9A for validation of this compacted 22 VDV gene signature).

[2] = tested on: metastatic colorectal carcinoma (CRC); details: whole NO16966 study, Saltz et al. 2008; cited from earlier work
VDV gene expression = experiment: Microarray VDV signature expression in pre- and post-treatment biopsies of inflammatory breast cancer patients (Table 3, human IBC Log2FC); assay type: in vivo; details: 19 inflammatory breast cancer patients, one dose single agent, 21 days post-treatment; published micro-array data (Wedam et al.)
Text: The log2 ratio intensity values from Agilent WMG microarrays and the Robust Multi-array Average (RMA) normalized intensities (also on the logarithmic scale) from Affymetrix Mouse430.2 microarrays were imported into R as expression sets using the package “Biobase,” and a linear model was fitted to each feature using the functions “lmFit” and “eBayes” in the “limma” package. […] The union of these genes was taken as representative of the VEGF-responsive vasculature. The extent to which this VDV gene expression signature varied in other experiments was determined by fitting a linear model to the microarray data using the “limma” package (as above) and calculating the mean of the t-statistics from gene in the signature according to the method of Falcon and Gentleman (Bioinformatics. 23: 257-258, 2007).
As depicted in Table 3 below, the genes in the VDV signature were ordered by the extent of anti-VEGF response in the human IBC trial. Orthologs between human and mouse were mapped using the Ensembl Biomart, where “Log 2FC” represents the log(2) fold-change of the gene's expression post-Avastin treatment as compared to pre-treatment. The 19 paired patient samples and the murine PNETs were analyzed on Agilent microarrays. […]

[3] = tested on: metastatic colorectal carcinoma (CRC); details: patients with metastatic CRC, Hurwitz et al. 2004; cited from earlier work
[4] = 103 biomarker evaluable patients, XELOX arms

bevacizumab: recombinant humanized anti-VEGF monoclonal antibody
OS HR, addition to chemotherapy [1, 4]: 0.45 | PFS HR, addition to chemotherapy [1, 4]: 0.59 | OS HR, addition to chemotherapy vs chemotherapy alone ([1]; VDV high patients): 0.31 | PFS HR, addition to chemotherapy vs chemotherapy alone ([1]; VDV high patients): 0.36 | OS HR, combination with chemotherapy vs chemotherapy alone ([1]; VDV low patients): 0.58 | PFS HR, combination with chemotherapy vs chemotherapy alone ([1]; VDV low patients): 0.88 | OS differences (secondary endpoint), addition to chemotherapy [2]: did not reach statistical significance | primary endpoint of PFS, addition to chemotherapy [2]: significantly improved | VDV transcripts post-treatment vs pre-treatment biopsies (VDV gene expression): clear down regulation | progression free survival (PFS) and overall survival (OS), combination with chemotherapy [3]: increase

Reference: patent publication US10364466B2, “Biological markers for identifying patients for treatment with VEGF antagonists” (Genentech, Inc., priority 2012, dated 2019)
